The subject of assay [1] is ACE (acetylcholinesterase) of sensitive mosquitoes. As to conditions: 10 microliters insecticide solution (10^-2 M), 15 min at ambient temperature, optical density over 10 min.
Protocol: (§1) The differences in the properties of the ACE (acetylcholinesterase) between mosquitoes that have this form of resistance and sensitive mosquitoes can be detected using the following test: • Experimental protocol TESTS No.-1: Sensitive and resistant mosquitoes.
(§2) 1° the mosquito (or larva) is crushed and the crushed material is homogenized in an Eppendorf tube with a buffer solution (20 mM tris, pH 7, containing 1% of Triton X-100). After centrifugation at 10,000 g for 2 minutes, the supernatant (which contains the ACE) is collected and distributed in the wells (A) and (B) of a microplate (100 microliters in each well),
(§3) Johnson in well (B), and 10 microliters of alcohol, in well (A). The microplate is left for 15 min at ambient temperature (which is sufficient to allow the action, if any, of the insecticide),
(§4) 3°determination of the catalytic activity of the ACE (acetylcholinesterase): in each well is added 100 microliters of a solution containing acetylcholine (2.5 mM) and 0.2 mM of DTNB (dinitro-2-benzoic). The intensity of the coloration is assessed by measuring the optical density (the optical density increases based on the coloration) If the enzyme is active, the products of the hydrolysis of the acetylcholine react with the DTNB to produce a substance that features an absorption peak for the radiations of 412 nm. It is therefore possible to follow the reaction by spectrophotometry. […]
The subject of assay [2] is ACE (acetylcholinesterase) of resistant mosquitoes. As to conditions: 10 microliters insecticide solution (10^-2 M), 15 min at ambient temperature, optical density over 10 min.
Protocol: as §1, §2, §3, §4
Assay [3] relates to Anopheles gambiae. The settings on record: J. Med. Entomol. 41 (4) (2004); cited from earlier work.
For assay [4], the system named is Aedes aegypti. The settings on record: J. Med. Entomol. 41 (4) (2004); cited from earlier work.
Assay [5] has as its system Culex quinquefasciatus. The settings on record: J. Med. Entomol. 41 (4) (2004); cited from earlier work.
The test system of assay [6] is VKPR mosquito strain (also called VKPER) of Anopheles gambiae. As to conditions: VKPR strain with mutation for knockdown resistance to pyrethroids; cited from earlier work.

Turning to `CNC(=O)Oc1ccccc1OC(C)C` [Propoxur], the “Effect of the insecticide on ACE catalytic activity (evolution of the optical density, insecticide well (B) vs control well (A))” value in assay [1] is “insufficient to prevent the Propoxur insecticide (Baygon) from working”; in assay [2], “completely resistant”.
In the case of `CN/C(=N/CC1CCOC1)N[N+](=O)[O-]` (stereo not drawn) [Dinotefuran], the Effect on mosquitoes result in assay [3], in assay [4], in assay [5] and in assay [6] was “lethal effect” throughout.

The values are drawn from US20250324969A1.
